These molecules were tested against T1, hROMK (hKir1.1) (Homo sapiens, UniProt P48048) (assay: Thallium Flux Assay (ROMK channel functional thallium flux assay)). Conditions: HEK293 cells stably expressing hROMK (hKir1.1); FluxOR thallium flux, FLIPR-Tetra, 30 min compound incubation; read-out: ROMK TI IC50.
T1 construct: expressed in transfected cells
T1 sequence (P48048 1-391): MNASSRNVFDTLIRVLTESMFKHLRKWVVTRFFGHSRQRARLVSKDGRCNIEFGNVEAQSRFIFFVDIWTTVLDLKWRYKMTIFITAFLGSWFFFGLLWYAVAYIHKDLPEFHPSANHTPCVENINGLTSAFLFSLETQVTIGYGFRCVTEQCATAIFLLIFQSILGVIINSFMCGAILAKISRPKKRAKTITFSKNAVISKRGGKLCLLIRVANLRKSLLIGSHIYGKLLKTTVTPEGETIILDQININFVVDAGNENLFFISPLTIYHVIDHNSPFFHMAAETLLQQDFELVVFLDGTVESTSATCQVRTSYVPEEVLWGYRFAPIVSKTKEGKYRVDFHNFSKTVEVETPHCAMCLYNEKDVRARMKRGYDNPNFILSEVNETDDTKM
Format: cell-based
How it was run: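 HEK293 cells stably expressing hROMK (hKir1.1) loaded with FluxOR dye 90 min at ambient temperature, then compound 30 min before thallium/potassium stimulant (final 3 mM Tl/0.3 mM K). ROMK-sensitive flux defined by 3 μM standard inhibitor; data as % fluorescence change.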

SMILES	IC50 [nM]
Cc1c([C@@H](O)CN2CCC3(CC2)CCN(c2ccc(C(F)(F)F)cn2)CC3)ccc2c1COC2=O [Example 115, (R)-5-(1-hydroxy-2-(9-(5-(trifluoromethyl)pyridin-2-yl)-3,9-diazaspiro[5.5]undecan-3-yl)ethyl)-4-methylisobenzofuran-1(3H)-one]	225
Cc1c([C@@H](O)CN2CCC3(CC2)CCN(c2cnc(Br)cn2)CC3)ccc2c1COC2=O [Example 127, (R)-5-(2-(9-(5-bromopyrazin-2-yl)-3,9-diazaspiro[5.5]undecan-3-yl)-1-hydroxyethyl)-4-methylisobenzofuran-1(3H)-one]	29.9
Cc1c([C@@H](O)CN2CCC3(CC2)CCN(c2cncc(F)c2)CC3)ccc2c1COC2=O [Example 111, 9-(5-fluoropyridin-3-yl)-3-[(2R)-2-hydroxy-2-(4-methyl-1-oxo-1,3-dihydro-2-benzofuran-5-yl)ethyl]-9-aza-3-azoniaspiro[5.5]undecane]	185
Cc1nc(-n2cnnn2)ccc1[C@@H](O)CN1CCC2(CC1)CCN(c1ccc(=O)n(C)n1)C2=O [Example 93, (R)-8-(2-hydroxy-2-(2-methyl-6-(1H-tetrazol-1-yl)pyridin-3-yl)ethyl)-2-(1-methyl-6-oxo-1,6-dihydropyridazin-3-yl)-2,8-diazaspiro[4.5]decan-1-one]	259
Cc1nccnc1N1CCC2(CCN(C[C@H](O)c3ccc4c(c3C)COC4=O)CC2)CC1 [Example 128, (R)-5-(1-hydroxy-2-(9-(3-methylpyrazin-2-yl)-3,9-diazaspiro[5.5]undecan-3-yl)ethyl)-4-methylisobenzofuran-1(3H)-one]	581
Cc1c([C@@H](O)CN2CCC3(CC2)CCN(c2cc(C(F)(F)F)ncn2)C3)ccc2c1COC2=O [Example 9, (R)-5-(1-hydroxy-2-(2-(6-(trifluoromethyl)pyrimidin-4-yl)-2,8-diazaspiro[4.5]decan-8-yl)ethyl)-4-methylisobenzofuran-1(3H)-one]	173
Cc1cc(N2CCCC3(CCN(C[C@H](O)c4ccc5c(c4C)COC5=O)CC3)C2=O)sn1 [Example 81, (R)-9-(2-hydroxy-2-(4-methyl-1-oxo-1,3-dihydroisobenzofuran-5-yl)ethyl)-2-(3-methylisothiazol-5-yl)-2,9-diazaspiro[5.5]undecan-1-one]	175
Cc1c([C@@H](O)CN2CCC3(CC2)CC(=O)N(c2ccc(=O)n(C)n2)C3)ccc2c1COC2=O [Example 30, (R)-8-(2-hydroxy-2-(4-methyl-1-oxo-1,3-dihydroisobenzofuran-5-yl)ethyl)-2-(1-methyl-6-oxo-1,6-dihydropyridazin-3-yl)-2,8-diazaspiro[4.5]decan-3-one]	95.1
Cc1nsc(N2CCOC3(CCN(C[C@H](O)c4ccc5c(c4C)COC5=O)CC3)C2=O)n1 [Example 28, (R)-9-(2-hydroxy-2-(4-methyl-1-oxo-1,3-dihydroisobenzofuran-5-yl)ethyl)-4-(3-methyl-1,2,4-thiadiazol-5-yl)-1-oxa-4,9-diazaspiro[5.5]undecan-5-one]	123
COc1nsc(N2CCOC3(CCN(C[C@H](O)c4ccc5c(c4C)COC5=O)CC3)C2=O)n1 [Example 27, (R)-9-(2-hydroxy-2-(4-methyl-1-oxo-1,3-dihydroisobenzofuran-5-yl)ethyl)-4-(3-methoxy-1,2,4-thiadiazol-5-yl)-1-oxa-4,9-diazaspiro[5.5]undecan-5-one]	25
COC(=O)c1csc(N2CCC3(CCN(C[C@H](O)c4ccc5c(c4C)COC5=O)CC3)CC2)n1 [Example 140, (R)-methyl 2-(9-(2-hydroxy-2-(4-methyl-1-oxo-1,3-dihydroisobenzofuran-5-yl)ethyl)-3,9-diazaspiro[5.5]undecan-3-yl)thiazole-4-carboxylate]	364
Cc1c([C@@H](O)CN2CCC3(CC2)CCN(c2cccnn2)CC3)ccc2c1COC2=O [Example 139, (R)-5-(1-hydroxy-2-(9-(pyridazin-3-yl)-3,9-diazaspiro[5.5]undecan-3-yl)ethyl)-4-methylisobenzofuran-1(3H)-one]	251
Cc1c([C@@H](O)CN2CCC3(CC2)CCN(c2cncc(Cl)n2)CC3)ccc2c1COC2=O [Example 126, (R)-5-(2-(9-(6-chloropyrazin-2-yl)-3,9-diazaspiro[5.5]undecan-3-yl)-1-hydroxyethyl)-4-methylisobenzofuran-1(3H)-one]	281
O[C@@H](CN1CCC2(CC1)CCN(c1cc(Cl)cnn1)CC2)c1ccc(-n2cnnn2)nc1 [Example 138, (R)-1-(6-(1H-tetrazol-1-yl)pyridin-3-yl)-2-(9-(5-chloropyridazin-3-yl)-3,9-diazaspiro[5.5]undecan-3-yl)ethanol]	387
Cc1c([C@@H](O)CN2CCC3(CC2)CCN(c2nccnc2Cl)CC3)ccc2c1COC2=O [Example 133, (R)-5-(2-(9-(3-chloropyrazin-2-yl)-3,9-diazaspiro[5.5]undecan-3-yl)-1-hydroxyethyl)-4-methylisobenzofuran-1(3H)-one]	274

The next lines start with the values.

IC50 [nM]	SMILES
437	Cc1c([C@@H](O)CN2CCC3(CC2)CCN(c2cnccn2)C3=O)ccc2c1COC2=O [Example 25, (R)-8-(2-hydroxy-2-(4-methyl-1-oxo-1,3-dihydroisobenzofuran-5-yl)ethyl)-2-(pyrazin-2-yl)-2,8-diazaspiro[4.5]decan-1-one]
110	Cc1c([C@@H](O)CN2CCC3(CC2)CCN(c2ccnc(Cl)n2)C3=O)ccc2c1COC2=O [Example 92, (R)-2-(2-chloropyrimidin-4-yl)-8-(2-hydroxy-2-(4-methyl-1-oxo-1,3-dihydroisobenzofuran-5-yl)ethyl)-2,8-diazaspiro[4.5]decan-1-one]
393	COc1ccc(N2CCC3(CCN(C[C@H](O)c4ccc5c(c4C)COC5=O)CC3)C2=O)nn1 [Example 36, (R)-8-(2-hydroxy-2-(4-methyl-1-oxo-1,3-dihydroisobenzofuran-5-yl)ethyl)-2-(6-methoxypyridazin-3-yl)-2,8-diazaspiro[4.5]decan-1-one]
65.5	Cc1cnsc1N1CCC2(CCN(C[C@H](O)c3ccc4c(c3C)COC4=O)CC2)C1=O [Example 104, (R)-8-(2-hydroxy-2-(4-methyl-1-oxo-1,3-dihydroisobenzofuran-5-yl)ethyl)-2-(4-methylisothiazol-5-yl)-2,8-diazaspiro[4.5]decan-1-one]
130	Cc1cc(N2CCC3(CCN(C[C@H](O)c4ccc5c(c4C)COC5=O)CC3)C2=O)ccn1 [Example 88, (R)-8-(2-hydroxy-2-(4-methyl-1-oxo-1,3-dihydroisobenzofuran-5-yl)ethyl)-2-(2-methylpyridin-4-yl)-2,8-diazaspiro[4.5]decan-1-one]
17.5	Cc1cc(N2CCC3(CCN(C[C@H](O)c4ccc5c(c4C)COC5=O)CC3)C2=O)sn1 [Example 66, (R)-8-(2-hydroxy-2-(4-methyl-1-oxo-1,3-dihydroisobenzofuran-5-yl)ethyl)-2-(3-methylisothiazol-5-yl)-2,8-diazaspiro[4.5]decan-1-one]
30.2	COc1nccc(N2CCOC3(CCN(C[C@H](O)c4ccc5c(c4C)COC5=O)CC3)C2=O)n1 [Example 24, (R)-9-(2-hydroxy-2-(4-methyl-1-oxo-1,3-dihydroisobenzofuran-5-yl)ethyl)-4-(2-methoxypyrimidin-4-yl)-1-oxa-4,9-diazaspiro[5.5]undecan-5-one]
